“And” between values parts separate entries of the source, which are not always exact repeats. Equal entries are not always repeated. Where two headings read alike, the source gives them in different places.
Tests used:
[1] = biological target: T1, wild-type mouse Pgp (MDR3) (Mus musculus, UniProt P21447)
Description: Acrylamide quenching of protein fluorescence was used to probe drug-induced Pgp conformational changes indirectly. For this assay, a solution containing 1 µM of Pgp reconstituted into liposomes was titrated with acrylamide. The preparation was carried out in Chifflet buffer (pH 7.4) supplemented with 2 mM DTT. The assay was performed both in the presence and absence of ligand(s). […] The fluorescence intensities were corrected for dilution, background, and inner filter effects using Equation (3). A Stern–Volmer plot of Fo(corrected)/F(corrected) versus the concentration of acrylamide added was generated. The slope of the curve, an indicator of the degree of quenching, is related to the Stern–Volmer’s constant (Ksv) by Equation (4). (4) Focorrected/Fcorrected=1+KsvQ where [Q] is the concentration of the quencher, acrylamide.

[2] = biological target: T1, wild-type mouse Pgp (MDR3); remark: listed apart in the source
Description: Atomic force microscopy (AFM) has been adapted for analyzing protein dynamics and structure, which has enabled the determination of conformational changes induced by ligands. In this study, Pgp reconstituted into liposomes was diluted in imaging buffer (20 mM HEPES, 100 mM NaCl, and 5 mM MgCl2; pH 7.4) to 100 nM. About 90 µL droplets of the diluted Pgp solution were deposited on cleaned […] (Corning, Corning, NY, USA), followed by 30 min of incubation at 25 °C. This step caused the proteoliposomes to rupture, forming a planar lipid bilayer on top of the mica surface. The samples were rinsed at least five times using the buffer exchange technique, wherein 90 µL of buffer was utilized. Next, AFM imaging of the EC-side and C-side domains of Pgp protrusions above the lipid bilayer was performed as previously described. For each of the selected CPTs used in this study, AFM imaging of the ligand-free Pgp (apoPgp) was performed first, then ligand was added, and imaging was repeated in nominally the same area. […] Only membrane-external protrusions that could be positively assigned as either EC or C-side domain features of Pgp were analyzed. All the AFM images were obtained in an imaging buffer at about 30 °C in tapping mode with biolever mini tips (BL-AC40TS, Olympus, Tokyo, Japan) installed on a commercial instrument (Asylum Research Cypher, Santa Barbara, CA, USA). The tip-sample force was kept below 100 pN to minimize the probability of protein distortion. The AFM images were analyzed with custom software written in Igor Pro 7 (Wavemetrics, Portland, OR, USA), as described previously. Kernel density estimation with Epanechnikov kernels in Igor Pro 7 software was used to generate smoothed histograms for further analysis. The histograms were fitted with a summation of Gaussian distributions. The Bayesian information criterion was used to select the best model after fitting with 1–5 Gaussian distributions as described previously (see Supporting Information).

[3] = biological target: T1, wild-type mouse Pgp (MDR3); remark: listed apart in the source
Text: For a molecule that binds to the receptor, only the protons within a distance of 5 Å from the saturated protein receive noticeable saturation transfer. The saturation transferred from the receptor to the bound ligands can be detected upon dissociation as a saturation transfer difference (STD). The observed degree of saturation transferred inversely correlates with the distance between the ligand and the receptor and reflects the degree of interaction. Due to the high lipophilicity of most Pgp substrates, there is a high possibility of non-specific interactions between the ligands and liposomes used, which can interfere with the STD NMR spectrum observed. The STD NMR spectrum of the drug in the presence of liposomes was performed and subtracted from the STD ^1H NMR spectrum of the ligand in the presence of proteins reconstituted into liposomes to yield a STDD. […] All NMR experiments were carried out at 25 °C (unless otherwise stated) on a Varian INOVA 600 MHz NMR spectrometer installed with a 1H-detect broadband probe {HX}.
The control samples were identically prepared with liposomes instead of Pgp reconstituted in liposomes. […] The difference between the on-resonance and the off-resonance created the STD ^1H NMR spectrum. A control experiment consisting of liposomes and drugs was obtained under identical conditions and subtracted from the ^1H STD NMR spectrum of the reconstituted Pgp sample with the drug to generate the STDD ^1H NMR spectrum. […] The STDD amplification factor was calculated using Equation (5) below. (5) STDD Amplication Factor=l/PΔl/Io where Io is the amplitude of the ^1H NMR peaks, l is the ligand concentration, and P is the protein concentration.

[4] = test system: human tumor xenograft models; settings: different human tumor xenograft models, versus TPT; cited from earlier work
[5] = second-line chemotherapy, versus TPT; cited from earlier work
[6] = biological target: T1, wild-type mouse Pgp (MDR3); settings: for Decrease of protein fluorescence from the initial fluorescence: ex 295 nm; for Decrease of protein fluorescence: saturating AMPPNP
[7] = versus TPT; cited from earlier work
[8] = biological target: T1, wild-type mouse Pgp (MDR3); test: biochemical
[9] = test system: LS513 cells; settings: LS513 cells treated with BCRP and MRP2 inhibitors, versus SN-38; cited from earlier work
[10] = 800 µM drug, 1 µM Pgp in liposomes, 25 °C

T1 sequence (P21447 whole entry): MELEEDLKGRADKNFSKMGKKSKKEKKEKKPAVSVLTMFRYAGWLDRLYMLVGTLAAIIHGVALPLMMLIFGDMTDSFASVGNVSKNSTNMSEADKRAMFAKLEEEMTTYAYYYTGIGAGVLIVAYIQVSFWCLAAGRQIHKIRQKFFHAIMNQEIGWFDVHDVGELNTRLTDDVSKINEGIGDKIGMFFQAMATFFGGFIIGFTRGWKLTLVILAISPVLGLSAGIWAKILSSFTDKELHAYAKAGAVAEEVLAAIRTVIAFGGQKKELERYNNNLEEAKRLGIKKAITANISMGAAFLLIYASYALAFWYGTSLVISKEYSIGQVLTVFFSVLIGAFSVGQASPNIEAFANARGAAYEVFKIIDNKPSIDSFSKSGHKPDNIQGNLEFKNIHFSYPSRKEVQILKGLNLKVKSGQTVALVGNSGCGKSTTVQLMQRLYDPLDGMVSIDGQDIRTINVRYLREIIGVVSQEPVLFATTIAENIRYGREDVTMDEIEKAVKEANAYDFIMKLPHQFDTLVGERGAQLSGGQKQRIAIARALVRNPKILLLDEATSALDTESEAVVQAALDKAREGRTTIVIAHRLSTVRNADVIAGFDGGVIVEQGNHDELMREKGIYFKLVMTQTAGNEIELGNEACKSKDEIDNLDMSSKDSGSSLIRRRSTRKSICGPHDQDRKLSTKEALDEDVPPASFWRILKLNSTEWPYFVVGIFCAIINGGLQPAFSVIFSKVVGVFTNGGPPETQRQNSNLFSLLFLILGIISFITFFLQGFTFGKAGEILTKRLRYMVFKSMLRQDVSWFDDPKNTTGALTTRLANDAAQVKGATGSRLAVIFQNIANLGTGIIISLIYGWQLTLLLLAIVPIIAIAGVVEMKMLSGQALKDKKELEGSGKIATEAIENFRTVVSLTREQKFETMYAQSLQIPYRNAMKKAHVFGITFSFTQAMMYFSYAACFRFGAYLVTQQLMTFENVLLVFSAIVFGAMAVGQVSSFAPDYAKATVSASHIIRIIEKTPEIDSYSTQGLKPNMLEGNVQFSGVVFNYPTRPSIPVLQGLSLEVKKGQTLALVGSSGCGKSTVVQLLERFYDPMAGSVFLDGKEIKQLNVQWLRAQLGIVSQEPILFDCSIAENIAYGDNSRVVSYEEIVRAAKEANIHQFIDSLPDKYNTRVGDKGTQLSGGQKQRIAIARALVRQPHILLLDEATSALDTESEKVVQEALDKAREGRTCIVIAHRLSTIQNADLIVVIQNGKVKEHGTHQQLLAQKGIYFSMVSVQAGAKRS

For `Nc1ncnc2c1ncn2[C@@H]1O[C@H](COP(=O)([O-])OP(=O)([O-])NP(=O)([O-])[O-])[C@@H](O)[C@H]1O.[Li+].[Li+].[Li+].[Li+]` [AMPPNP, Adenosine 5′-(β,γ-imido)triphosphate lithium salt], the “Ksv of acrylamide quenching of Pgp fluorescence” value (“Ksv … of Pgp fluorescence” for short) ([1]; Pgp with saturating (3.2 mM) AMPPNP alone, no CPT) was 0.84 ± 0.07 M⁻¹.

For `CCc1c2c(nc3ccc(OC(=O)N4CCC(N5CCCCC5)CC4)cc13)-c1cc3c(c(=O)n1C2)COC(=O)[C@]3(O)CC` [IRT, Irinotecan], the “C-side height of tallest Pgp population in presence of drug” value (“C-side height of tallest Pgp population” for short) ([2]; 100 µM drug, apo 76 ± 9 Å) was 70 ± 10 Å, the “Decrease in the Ksv value of apoPgp (acrylamide quenching)” value (“Decrease in the Ksv value of apoPgp” below) [1] was ~ 20% and the “Ksv … of Pgp fluorescence” value [1] was 0.83 ± 0.05 and 0.83 ± 0.05 M^−1. For the same compound, the “Highest STDD amplification factor” value [3] was roughly 81, the “Efficacy compared with TPT” value [4] was “greater efficacy” and the “Survival rate of patients compared with TPT” value [5] was “higher survival rate”. The “Change of affinity for Pgp in the presence of AMPPNP” value (“Change of affinity for Pgp” for short) [6] was “diminished by over threefold” and the “Stern–Volmer constant (Ksv) of drug-induced Pgp fluorescence quenching” value (shortened to “Stern–Volmer constant (Ksv)”) [6] was 0.07 ± 0.01 µM⁻¹.

With `CC(=O)N[C@@H](Cc1c[nH]c2ccccc12)C(N)=O` [NATA, N-acetyl-L-tryptophanamide] the “Ksv of acrylamide quenching of NATA fluorescence” value ([1]; positive control, fully solvent-exposed tryptophan, no Pgp) was 15.43 ± 0.37 M⁻¹.

In the case of `CCc1c2c(nc3ccc(O)cc13)-c1cc3c(c(=O)n1C2)COC(=O)[C@]3(O)CC` [SN-38], the “Fold higher cellular retention than TPT” value [7] is given as greater than 2 fold, the Kd ([8]; absence of AMPPNP) is given as 3.53 ± 1.14 µM and the Kd ([8]; saturating (3.2 mM) AMPPNP) is given as 13.2 ± 4.23 µM. For the same compound, the “Probability density difference (∆PD) of tallest population relative to apo” value ([2]; 30 µM drug) was −1.08 × 10^7, the “C-side height of tallest Pgp population” value ([2]; 30 µM drug, apo 84 ± 5 Å) was 78 ± 7 Å and the “Ksv … of Pgp fluorescence” value ([1]; 30 µM drug, 3.2 mM AMPPNP) was 0.81 ± 0.08 M⁻¹. The “Ksv … of Pgp fluorescence” value ([1]; 30 µM drug, absence of AMPPNP, apoPgp 1.58 ± 0.03) was 1.12 ± 0.02 M⁻¹, the “Decrease in the Ksv value of apoPgp” value ([1]; 30 µM drug, no AMPPNP (Figure 4)) was ~ 28% and the “Decrease of protein fluorescence from the initial fluorescence” value ([6]; 60 µM drug, absence of AMPPNP) was roughly 40.6%. For the same compound, the “Decrease of protein fluorescence” value ([6]; 60 µM drug) was 38.8%, the “Stern–Volmer constant (Ksv)” value ([6]; absence of AMPPNP) was 0.28 ± 0.09 µM⁻¹ and the “Change of affinity for Pgp” value ([6]; presence vs absence of AMPPNP) was “diminished by over threefold”. The “Stern–Volmer constant (Ksv)” value ([6]; saturating (3.2 mM) AMPPNP) was 0.076 ± 0.02 µM⁻¹.

In the case of `CC[C@@]1(O)C(=O)OCc2c1cc1n(c2=O)Cc2cc3c(CN(C)C)c(O)ccc3nc2-1` [TPT, Topotecan], the “Relative efflux rate, times higher than SN-38” value [9] is listed as “approximately 4 times”, the Kd ([8]; absence of AMPPNP) is listed as 2.47 ± 0.57 µM and the Kd ([8]; saturating (3.2 mM) AMPPNP) is listed as 16 ± 3.27 µM. For the same compound, the “Probability density difference (∆PD) of tallest population relative to apo” value ([2]; 60 µM drug) was 4.11 × 10^7, the “C-side height of tallest Pgp population” value ([2]; 60 µM drug, apo 74 ± 9 Å) was 75 ± 7 Å and the “Ksv … of Pgp fluorescence” value ([1]; 60 µM drug, 3.2 mM AMPPNP) was 0.71 ± 0.04 M⁻¹. The “Ksv … of Pgp fluorescence” value ([1]; 60 µM drug, absence of AMPPNP, apoPgp 1.58 ± 0.03) was 0.78 ± 0.06 M⁻¹, the “Decrease in the Ksv value of apoPgp” value ([1]; 60 µM drug, no AMPPNP (Figure 4)) was roughly 50% and the “Average STDD amplification factor” value [3, 10] was “around 45”. The “Highest STDD amplification factor” value [3, 10] was “approximately 133”, the “Decrease of protein fluorescence from the initial fluorescence” value ([6]; 100 µM drug, absence of AMPPNP) was “approximately 71.6%” and the “Decrease of protein fluorescence” value ([6]; 100 µM drug) was 61.0%. The “Stern–Volmer constant (Ksv)” value ([6]; absence of AMPPNP) was 0.41 ± 0.09 µM⁻¹, the “Change of affinity for Pgp” value ([6]; presence vs absence of AMPPNP) was “diminished by over threefold” and the “Stern–Volmer constant (Ksv)” value ([6]; saturating (3.2 mM) AMPPNP) was 0.06 ± 0.01 µM⁻¹.

Reference: paper PMC10671697, “Drug-Induced Conformational Dynamics of P-Glycoprotein Underlies the Transport of Camptothecin Analogs” (International Journal of Molecular Sciences, 2023)
